# Calls of active or inactive are those of the source. The rule behind the calls is not given here.
# Key:
# Staphylococcus aureus [1] = test: Antibacterial activity against Staphylococcus aureus ATCC 25923 by microbroth dilution method; assay type: functional, organism-based
# Staphylococcus aureus [2] = test: Antibacterial activity against methicillin-resistant Staphylococcus aureus ATCC BAA-41 by microbroth dilution method; assay type: functional, organism-based
# Pseudomonas aeruginosa [3] = test: Antibacterial activity against Pseudomonas aeruginosa ATCC 15442 by microbroth dilution method; assay type: functional, organism-based
# HCT-116 [4] = test: Cytotoxicity against human HCT116 cells assessed as reduction in cell viability by MTT assay; assay type: functional, cell-based
# Staphylococcus aureus [5] = test: Antibacterial activity against multi-resistant Staphylococcus aureus ATCC BAA-44 by microbroth dilution method; assay type: functional, organism-based
# [6] = Antioxidant activity assessed as DPPH radical scavenging activity at > 50 uM and measure every 10 mins for 30 mins subsequently measured every 30 mins for 4 hrs by spectrophotometric method; assay type: functional
# [7] = Metal chelating activity of the compound assessed as Fe2+-compound complex formation by measuring absorbance at > 50 uM in presence of ferrozine by spectrophotometric method
# HCT-116 [8] = test: Cytotoxicity against human HCT116 cells assessed as assessed as growth inhibition at 200 uM by MTT assay relative to control; assay type: functional; details: read-out: GI
# [9] = Stability of compound in methanol; assay type: physicochemical
# Staphylococcus aureus [10] = test: Antibacterial activity against methicillin-resistant Staphylococcus aureus ATCC BAA-41 assessed as growth inhibition at 0.125 mg/m by microbroth dilution method relative to control; assay type: functional
# Staphylococcus aureus [11] = test: Antibacterial activity against Staphylococcus aureus ATCC 25923 assessed as growth inhibition at 0.125 mg/m by microbroth dilution method relative to control; assay type: functional
# Pseudomonas aeruginosa [12] = test: Antibacterial activity against Pseudomonas aeruginosa ATCC 15442 assessed as growth inhibition at 0.125 mg/ml by microbroth dilution method relative to control; assay type: functional; details: read-out: GI
Compound,Activity (Staphylococcus aureus [1]),Activity (Staphylococcus aureus [2]),Activity (Pseudomonas aeruginosa [3]),Activity (HCT-116 [4]),Activity (Staphylococcus aureus [5]),Activity [6],Activity [7],other results
COc1cc(O)cc(CC(C)=O)c1C[C@@H](C)C(=O)[C@@H](C)C(=O)/C(C)=C/C(C)=C/[C@H](C)[C@H](C)O,inactive,inactive,inactive,inactive,inactive,inactive,inactive,
COc1cc(O)cc(CC(C)=O)c1C[C@@H](C)C(=O)[C@H](C)C(=O)/C(C)=C/C(C)=C/[C@H](C)[C@H](C)O,inactive,inactive,inactive,inactive,inactive,inactive,inactive,
COc1cc([C@@H]2c3cc4c(cc3[C@@H](O[C@@H]3O[C@@H]5CO[C@@H](C)O[C@H]5[C@H](O)[C@H]3O)[C@H]3COC(=O)[C@H]23)OCO4)cc(OC)c1O [ETOPOSIDE],,,,,,,,inhibition of growth at 200 µM (HCT-116 [8]): 82.8%
CC(=O)Cc1cc(O)cc2c1CC(C)C(O)(C(C)C(=O)/C(C)=C/C(C)=C/C(C)C(C)O)O2 (configuration not stated),inactive,inactive,inactive,inactive,inactive,inactive,inactive,
CC(=O)Cc1cc(O)cc(O)c1CC(C)C(=O)C(C)C(=O)/C(C)=C/C(C)=C/C(C)C(C)O (configuration not stated),inactive,inactive,inactive,inactive,inactive,inactive,inactive,
C=C[C@]1(C)C=C2C(=O)[C@]3(O)OC(=O)[C@@]4(CCCC(C)(C)[C@@H]43)[C@H]2CC1,,,,,,,,IC50 (Staphylococcus aureus [1]): 71.6 µM; IC50 (Staphylococcus aureus [2]): 77.8 µM; IC50 (Pseudomonas aeruginosa [3]): > 100 µM; IC50 (HCT-116 [4]): 32.7 µM; Stability [9]: Unstable
CN[C@H](CC(C)C)C(=O)N[C@H]1C(=O)N[C@@H](CC(N)=O)C(=O)N[C@H]2C(=O)N[C@H]3C(=O)N[C@H](C(=O)N[C@H](C(=O)O)c4cc(O)cc(O)c4-c4cc3ccc4O)[C@H](O)c3ccc(c(Cl)c3)Oc3cc2cc(c3O[C@@H]2O[C@H](CO)[C@@H](O)[C@H](O)[C@H]2O[C@H]2C[C@](C)(N)[C@H](O)[C@H](C)O2)Oc2ccc(cc2Cl)[C@H]1O [VANCOMYCIN],,,,,,,,growth inhibition (GI) (Staphylococcus aureus [10]): 100%
C=C[C@]1(C)C=C2C(=O)[C@@]3(O)OC(=O)[C@@]4(CCCC(C)(C)[C@H]34)[C@@]2(O)CC1 [SPHAEROPSIDIN A],,,,,,,,IC50 (Staphylococcus aureus [1]): 32.6 µM; IC50 (Staphylococcus aureus [2]): 35.3 µM; IC50 (Pseudomonas aeruginosa [3]): > 100 µM; IC50 (HCT-116 [4]): 4.9 µM; Stability [9]: Stable
NC[C@H]1O[C@H](O[C@H]2[C@H](O)[C@@H](O[C@H]3O[C@H](CO)[C@@H](O)[C@H](N)[C@H]3O)[C@H](N)C[C@@H]2N)[C@H](O)[C@@H](O)[C@@H]1O [KANAMYCIN],,,,,,,,growth inhibition (GI) (Staphylococcus aureus [11]): 100%; inhibition of growth at 125 µg/mL (Pseudomonas aeruginosa [12]): 100%
